# Laboratory results as given in ChEMBL document CHEMBL5143615, “Novel 2-aryl-4-aryloxyquinoline-based fungistatics for Mucor circinelloides. Biological evaluation of activity, QSAR and docking study” (Bioorg Med Chem Lett, 2022).
# Activity calls are given as the source filed them. No cut-off for these calls is given here.
# What was measured:
# Mucor circinelloides [1] = assay: Antifungal activity against Mucor circinelloides R7B wild type strain assessed as reduction in spore germination at 25 ug/ml relative to control; format: functional; parameters: scale not given: the % may be the effect or the level left; settings: dose 25 µg/ml
# [2] = molecular target: T1, Lanosterol 14-alpha demethylase (Mus musculus, UniProt Q8K0C4); assay: Inhibition of CYP51 in mouse NIH/3T3 cells assessed as specific enzymatic activity at 100 ug/ml incubated for 48 hrs by ELISA analysis; format: ADME, cell-based; settings: nih/3t3, 48 h, dose 100 µg/ml
# T1 sequence (Q8K0C4 whole entry): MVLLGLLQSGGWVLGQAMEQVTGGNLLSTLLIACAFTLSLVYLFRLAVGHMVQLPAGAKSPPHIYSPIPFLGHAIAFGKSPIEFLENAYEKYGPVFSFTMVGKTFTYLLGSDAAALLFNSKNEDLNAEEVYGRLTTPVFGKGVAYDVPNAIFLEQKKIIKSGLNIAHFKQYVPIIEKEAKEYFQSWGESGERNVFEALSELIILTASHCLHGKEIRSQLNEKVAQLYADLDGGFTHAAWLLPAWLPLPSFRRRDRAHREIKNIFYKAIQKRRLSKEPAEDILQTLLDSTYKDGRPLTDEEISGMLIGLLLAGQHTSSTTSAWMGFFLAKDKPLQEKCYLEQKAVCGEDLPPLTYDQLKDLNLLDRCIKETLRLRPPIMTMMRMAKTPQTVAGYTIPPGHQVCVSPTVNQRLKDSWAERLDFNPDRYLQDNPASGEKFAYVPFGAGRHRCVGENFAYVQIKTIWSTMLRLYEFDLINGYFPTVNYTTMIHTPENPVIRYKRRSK
# Mucor circinelloides [3] = assay: Antifungal activity against Mucor circinelloides M5 strain assessed as reduction in fungal growth by broth dilution method; format: functional
# Mucor circinelloides [4] = assay: Antifungal activity against Mucor circinelloides R7B wild type strain assessed as reduction in spore germination at 50 ug/ml relative to control; format: functional; parameters: scale not given: the % may be the effect or the level left; settings: dose 50 µg/ml
# [5] = molecular target: T1, Lanosterol 14-alpha demethylase; assay: Inhibition of CYP51 in mouse NIH/3T3 cells assessed as specific enzymatic activity at 150 ug/ml incubated for 48 hrs by ELISA analysis; format: ADME, cell-based; settings: nih/3t3, 48 h, dose 150 µg/ml
# Mucor circinelloides [6] = assay: Antifungal activity against Mucor circinelloides R7B wild type strain assessed as non-germinated spores and undifferentiated hyphae at 50 ug/ml by microscopic analysis; format: functional, organism-based; settings: dose 50.0 µg/ml
# Nannizzia gypsea [7] = assay: Antifungal activity against Microsporum gypseum clinical isolate 1 assessed as reduction in fungal growth by broth dilution method; format: functional
# [8] = molecular target: T1, Lanosterol 14-alpha demethylase; assay: Inhibition of CYP51 in mouse NIH/3T3 cells assessed as specific enzymatic activity at 50 ug/ml incubated for 48 hrs by ELISA analysis; format: ADME, cell-based; settings: nih/3t3, 48 h, dose 50 µg/ml
# Aspergillus nidulans [9] = assay: Antifungal activity against Aspergillus nidulans clinical isolate 1 assessed as reduction in fungal growth by broth dilution method; format: functional
# [10] = system: Trichophyton mentagrophytes; assay: Antifungal activity against Trichophyton mentagrophytes clinical isolate 3 assessed as reduction in fungal growth by broth dilution method; format: functional
# [11] = system: Trichophyton mentagrophytes; assay: Antifungal activity against Trichophyton mentagrophytes clinical isolate 1 assessed as reduction in fungal growth by broth dilution method; format: functional
# Mucor circinelloides [12] = assay: Antifungal activity against Mucor circinelloides M5 strain assessed as reduction in spore germination at 150 ug/ml relative to control; format: functional; parameters: scale not given: the % may be the effect or the level left; settings: dose 150 µg/ml
# [13] = molecular target: T1, Lanosterol 14-alpha demethylase; assay: Inhibition of CYP51 in mouse NIH/3T3 cells assessed as specific enzymatic activity at 25 ug/ml incubated for 48 hrs by ELISA analysis; format: ADME, cell-based; settings: nih/3t3, 48 h, dose 25 µg/ml
# Aspergillus nidulans [14] = assay: Antifungal activity against Aspergillus nidulans clinical isolate 2 assessed as reduction in fungal growth by broth dilution method; format: functional
# Mucor circinelloides [15] = assay: Antifungal activity against Mucor circinelloides M5 strain assessed as reduction in spore germination at 50 ug/ml relative to control; format: functional; parameters: scale not given: the % may be the effect or the level left; settings: dose 50 µg/ml
# Microsporum canis [16] = assay: Antifungal activity against Microsporum canis clinical isolate 3 assessed as reduction in fungal growth by broth dilution method; format: functional
# Mucor circinelloides [17] = assay: Antifungal activity against Mucor circinelloides M5 strain assessed as few mycelia with several spores at 50 ug/ml by microscopic analysis; format: functional, organism-based; settings: dose 50.0 µg/ml
# [18] = Cytotoxicity against mouse NIH/3T3 cells assessed as reduction in cell viability at 25 ug/ml incubated for 48 hrs by MTT assay (reference value: 93.8 +/- 4.9 %); format: toxicity, cell-based, NIH3T3; settings: at 25 µg/mL, read-out: Activity
# [19] = Cytotoxicity against mouse NIH/3T3 cells assessed as reduction in cell viability at 200 ug/ml incubated for 48 hrs by MTT assay (reference value: 93.8 +/- 4.9 %); format: toxicity, cell-based, NIH3T3; settings: at 200 µg/mL, read-out: Activity
# Trichophyton rubrum [20] = assay: Antifungal activity against Trichophyton rubrum clinical isolate 1 assessed as reduction in fungal growth by broth dilution method; format: functional
# Mucor circinelloides [21] = assay: Antifungal activity against Mucor circinelloides R7B wild type strain assessed as reduction in spore germination at 150 ug/ml relative to control; format: functional; parameters: scale not given: the % may be the effect or the level left; settings: dose 150 µg/ml
# [22] = Cytotoxicity against mouse NIH/3T3 cells assessed as reduction in cell viability at 150 ug/ml incubated for 48 hrs by MTT assay (reference value: 93.8 +/- 4.9 %); format: toxicity, cell-based, NIH3T3; settings: at 150 µg/mL, read-out: Activity
# Microsporum canis [23] = assay: Antifungal activity against Microsporum canis clinical isolate 1 assessed as reduction in fungal growth by broth dilution method; format: functional
# Mucor circinelloides [24] = assay: Antifungal activity against Mucor circinelloides R7B wild type strain assessed as reduction in fungal growth by broth dilution method; format: functional
# [25] = molecular target: T1, Lanosterol 14-alpha demethylase; assay: Inhibition of CYP51 in mouse NIH/3T3 cells assessed as specific enzymatic activity at 200 ug/ml incubated for 48 hrs by ELISA analysis; format: ADME, cell-based; settings: nih/3t3, 48 h, dose 200 µg/ml
# Mucor circinelloides [26] = assay: Antifungal activity against Mucor circinelloides M5 strain assessed as non-germinated spores at 100 to 150 ug/ml by microscopic analysis; format: functional, organism-based; settings: dose 100-150 µg/ml
# Mucor circinelloides [27] = assay: Antifungal activity against Mucor circinelloides M5 strain assessed as reduction in spore germination at 25 ug/ml relative to control; format: functional; parameters: scale not given: the % may be the effect or the level left; settings: dose 25 µg/ml
# Microsporum canis [28] = assay: Antifungal activity against Microsporum canis clinical isolate 2 assessed as reduction in fungal growth by broth dilution method; format: functional
# [29] = Cytotoxicity against mouse NIH/3T3 cells assessed as reduction in cell viability at 100 ug/ml incubated for 48 hrs by MTT assay (reference value: 93.8 +/- 4.9 %); format: toxicity, cell-based, NIH3T3; settings: at 100 µg/mL, read-out: Activity
# Mucor circinelloides [30] = assay: Antifungal activity against Mucor circinelloides M5 strain assessed as complete absence of mycelia at 100 to 150 ug/ml by microscopic analysis; format: functional, organism-based; settings: dose 100-150 µg/ml
# [31] = system: Trichophyton mentagrophytes; assay: Antifungal activity against Trichophyton mentagrophytes clinical isolate 2 assessed as reduction in fungal growth by broth dilution method; format: functional
# Mucor circinelloides [32] = assay: Antifungal activity against Mucor circinelloides R7B wild type strain assessed as few mycelia with several spores at 50 ug/ml by microscopic analysis; format: functional, organism-based; settings: dose 50.0 µg/ml
# Mucor circinelloides [33] = assay: Antifungal activity against Mucor circinelloides R7B wild type strain assessed as non-germinated spores at 100 to 150 ug/ml by microscopic analysis; format: functional, organism-based; settings: dose 100-150 µg/ml
# Mucor circinelloides [34] = assay: Antifungal activity against Mucor circinelloides M5 strain assessed as non-germinated spores and undifferentiated hyphae at 50 ug/ml by microscopic analysis; format: functional, organism-based; settings: dose 50.0 µg/ml
# Aspergillus niger = assay: Antifungal activity against Aspergillus niger clinical isolate 1 assessed as reduction in fungal growth by broth dilution method; format: functional
# Mucor circinelloides [35] = assay: Antifungal activity against Mucor circinelloides R7B wild type strain assessed as complete absence of mycelia at 100 to 150 ug/ml by microscopic analysis; format: functional, organism-based; settings: dose 100-150 µg/ml
# Nannizzia gypsea [36] = assay: Antifungal activity against Microsporum gypseum clinical isolate 2 assessed as reduction in fungal growth by broth dilution method; format: functional
# Trichophyton rubrum [37] = assay: Antifungal activity against Trichophyton rubrum clinical isolate 2 assessed as reduction in fungal growth by broth dilution method; format: functional
# [38] = Cytotoxicity against mouse NIH/3T3 cells assessed as reduction in cell viability at 50 ug/ml incubated for 48 hrs by MTT assay (reference value: 93.8 +/- 4.9 %); format: toxicity, cell-based, NIH3T3; settings: at 50 µg/mL, read-out: Activity
# Epidermophyton floccosum = assay: Antifungal activity against Epidermophyton floccosum clinical isolate 1 assessed as reduction in fungal growth by broth dilution method; format: functional
compound,measurement,setting,value
OC(Cn1cncn1)(Cn1cncn1)c1ccc(F)cc1F [FLUCONAZOLE],Activity,Mucor circinelloides [1],83.3%
same,Activity,[2],2.49 U/mg
same,MIC,Mucor circinelloides [3],> 150 µg/mL
same,Activity,Mucor circinelloides [4],28.2%
same,Activity,[5],1.25 U/mg
same,Activity,Mucor circinelloides [6],Active
same,MIC,Nannizzia gypsea [7],50 µg/mL
same,Activity,[8],7.18 U/mg
same,MIC,Aspergillus nidulans [9],50 µg/mL
same,MIC,[10],75 µg/mL
same,MIC,[11],75 µg/mL
same,Activity,Mucor circinelloides [12],6.7%
same,Activity,[13],12.8 U/mg
same,MIC,Aspergillus nidulans [14],50 µg/mL
same,Activity,Mucor circinelloides [15],30.4%
same,MIC,Microsporum canis [16],50 µg/mL
same,Activity,Mucor circinelloides [17],Active
same,"viability at 48 h, 25 ug/ml",[18],98.2%
same,"viability at 48 h, 200 ug/ml",[19],15.7%
same,MIC,Trichophyton rubrum [20],75 µg/mL
same,Activity,Mucor circinelloides [21],4.8%
same,"viability at 48 h, 150 ug/ml",[22],15.5%
same,MIC,Microsporum canis [23],50 µg/mL
same,MIC,Mucor circinelloides [24],150 µg/mL
same,Activity,[25],0 U/mg
same,Activity,Mucor circinelloides [26],Active
same,Activity,Mucor circinelloides [27],72.6%
same,MIC,Microsporum canis [28],50 µg/mL
same,"viability at 48 h, 100 ug/ml",[29],18.8%
same,Activity,Mucor circinelloides [30],Active
same,MIC,[31],75 µg/mL
same,Activity,Mucor circinelloides [32],Active
same,Activity,Mucor circinelloides [33],Active
same,Activity,Mucor circinelloides [34],Active
same,MIC,Aspergillus niger,50 µg/mL
same,Activity,Mucor circinelloides [35],Active
same,MIC,Nannizzia gypsea [36],50 µg/mL
same,MIC,Trichophyton rubrum [37],75 µg/mL
same,"viability at 48 h, 50 ug/ml",[38],25%
same,MIC,Epidermophyton floccosum,50 µg/mL
